Values of other authors, collected in patent US20170360735A1, “INGESTIBLE EMULSION MATRIX FOR DELIVERY OF CREATINE” (DreamPak, priority 2016, published 2017).
Where two headings read alike, the source gives them in different places.

What was measured:
[1] = ingestion of 20-30 g creatine per day for several days
[2] = oral, estimated

## N-(aminoiminomethyl)-N-methylglycine [creatine]
[1]
  increase in human skeletal muscle creatine content: greater than 20%
[2]
  absorption rate from the gastrointestinal (GI) tract: 1-14%
At 70° F.
  creatine dissolved in water: about 1.4%
At 120° F.
  creatine dissolved in water: about 4.5%
